Data published in PubChem BioAssay (NCI).
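A five-concentration, 48-hour dose response in 96-well plates underlies each endpoint, interpolated linearly between surrounding concentrations. At the TGI there is no net growth.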

Assays:
Experiment in all cases: NCI tumour cell line growth inhibition, 48 h
SNB-19 CNS = tested on: SNB-19 CNS
DU-145 prostate = tested on: DU-145 prostate
SK-OV-3 ovarian = tested on: SK-OV-3 ovarian
COLO 205 colon = tested on: COLO 205 colon
K-562 leukemia = tested on: K-562 leukemia
MALME-3M melanoma = tested on: MALME-3M melanoma
786-0 renal = tested on: 786-0 renal
NCI-H522 lung = tested on: NCI-H522 lung
MCF7 breast = tested on: MCF7 breast
OVCAR-8 ovarian = tested on: OVCAR-8 ovarian
KM12 colon = tested on: KM12 colon
SR leukemia = tested on: SR leukemia
MDA-N = tested on: MDA-N
T-47D breast = tested on: T-47D breast
NCI-H226 lung = tested on: NCI-H226 lung
SK-MEL-28 melanoma = tested on: SK-MEL-28 melanoma
UO-31 renal = tested on: UO-31 renal
PC-3 prostate = tested on: PC-3 prostate
IGROV1 ovarian = tested on: IGROV1 ovarian
UACC-62 melanoma = tested on: UACC-62 melanoma
TK-10 renal = tested on: TK-10 renal
NCI-H460 lung = tested on: NCI-H460 lung
ACHN renal = tested on: ACHN renal
HT29 colon = tested on: HT29 colon
U251 CNS = tested on: U251 CNS
A498 renal = tested on: A498 renal
BT-549 breast = tested on: BT-549 breast
UACC-257 melanoma = tested on: UACC-257 melanoma
HCT-116 colon = tested on: HCT-116 colon
HL-60(TB) leukemia = tested on: HL-60(TB) leukemia
MOLT-4 leukemia = tested on: MOLT-4 leukemia
EKVX NSCLC = tested on: EKVX NSCLC
OVCAR-5 ovarian = tested on: OVCAR-5 ovarian
SN12C renal = tested on: SN12C renal
MDA-MB-231 breast = tested on: MDA-MB-231 breast
SF-268 CNS = tested on: SF-268 CNS
CCRF-CEM leukemia = tested on: CCRF-CEM leukemia
SNB-75 CNS = tested on: SNB-75 CNS
SW-620 colon = tested on: SW-620 colon
HCC-2998 colon = tested on: HCC-2998 colon
OVCAR-3 ovarian = tested on: OVCAR-3 ovarian
M14 melanoma = tested on: M14 melanoma
NCI-H23 lung = tested on: NCI-H23 lung
HOP-92 NSCLC = tested on: HOP-92 NSCLC
HOP-62 NSCLC = tested on: HOP-62 NSCLC
HS 578T breast = tested on: HS 578T breast
SF-539 CNS = tested on: SF-539 CNS
RXF 393 renal = tested on: RXF 393 renal
OVCAR-4 ovarian = tested on: OVCAR-4 ovarian
MDA-MB-435 = tested on: MDA-MB-435
SF-295 CNS = tested on: SF-295 CNS
SK-MEL-2 melanoma = tested on: SK-MEL-2 melanoma
HCT-15 colon = tested on: HCT-15 colon
RPMI-8226 leukemia = tested on: RPMI-8226 leukemia
NCI/ADR-RES ovarian = tested on: NCI/ADR-RES ovarian
CAKI-1 renal = tested on: CAKI-1 renal
SK-MEL-5 melanoma = tested on: SK-MEL-5 melanoma
LOX IMVI melanoma = tested on: LOX IMVI melanoma

Measured: TGI

CC1C2CC(C(S(=O)(=O)O)C2=O)C1(C)C (configuration not stated)
not listed: SK-MEL-2 melanoma | HCT-15 colon | RPMI-8226 leukemia | NCI/ADR-RES ovarian | CAKI-1 renal | SK-MEL-5 melanoma | LOX IMVI melanoma
> 100 µM: all other assays above

COC1OC(CS(=O)(=O)O)C(O)C(O)C1O (configuration not stated)
not listed: 786-0 renal | NCI-H522 lung | ACHN renal | EKVX NSCLC | MDA-MB-231 breast | SF-268 CNS | SF-539 CNS
> 100 µM: all other assays above
